These are literature values, as cited in patent US20190161549A1, “COMBINATION THERAPY WITH A MEK INHIBITOR, A PD-1 AXIS INHIBITOR, AND A VEGF INHIBITOR” (Genentech, Inc., priority 2016, published 2019).

Like-named read-outs stand apart in the source and are kept apart here.

One data set relates to human tumor cell lines. The following applies: through inhibition of MEK1 and MEK2.
For data set [1], the system named is human tumor xenograft models.
The next data set relates to cancer patients. The following applies: 14 CRC patients.
The conditions of data set [2]: dose range 0.05 mg/kg (approximately 3.5 mg for 70 kg adult) to 80 mg.
For data set [3] the following is noted: with or without high-fat meal, versus cobimetinib alone fasted.
Assay in data set [4]: not given
This is another data set of the same source.

With `O=C(c1ccc(F)c(F)c1Nc1ccc(I)cc1F)N1CC(O)([C@@H]2CCCCN2)C1` [cobimetinib, (S)[3,4-Difluoro-2-(2-fluoro-4-iodophenylamino)phenyl][3-hydroxy-3-(piperidin-2-yl]azetidin-1-yl) methanone], in the data set on human tumor cell lines, the “proliferation of a variety of human tumor cell lines” value is “inhibits proliferation”. In addition, the “ERK phosphorylation in xenograft tumor models” value in data set [1] was “inhibits ERK phosphorylation”. Besides, the “response in colorectal cancer (CRC) patients” value in the data set on cancer patients is recorded as “all patients experienced progressive disease”. Besides, in data set [2], the “dose proportionality of pharmacokinetics” value is reported as “linear pharmacokinetics”. Also, the “effect of proton pump inhibitor rabeprazole on pharmacokinetics” value in data set [3] was “minimal effect”.

“atezolizumab: anti-PD-L1 antibody, CAS Registry Number: 1422185-06-5”: the “Kaplan-Meier estimated overall 24-week progression-free survival (PFS) rate” value (Study PCD4989g, 95% CI: 12%, 53%) is listed as 33%. The anti-tumor activity result (across doses from 1 to 20 mg/kg) is listed as “has been observed”. In addition, in data set [4] (800 mg every two weeks (equivalent to 10 mg/kg q2w)), the “exposure of fixed dose 800 mg q2w versus 1200 mg q3w” value is “equivalent exposure”. For the same compound, in data set [4] (doses ≥1 mg/kg every three weeks (q3w)), the “dose proportionality of pharmacokinetics” value was “linear”.
